pEC50: −log10 of the molar value.
system: HIV-1 (IIIB strain); assay: Anti-HIV cytoprotection assay (XTT), HIV-1 IIIB in CEM-SS cells; assay type: cell-based; settings: Human immunodeficiency virus 1, IIIB, CEM-SS, CEM-SS cell line; read-out: Inhibitory activity (EC50) against HIV-1 (IIIB strain)
Source text: a) Inhibitory Activity of the Lymphocytropic Virus Strain HIV-1 (IIIB) in the CEM-SS Cell Line.
The evaluation was done by ImQuest BioSciences, Inc. (Frederick, Md., USA). CEM-SS cells [Foley G. E. et al. Continuous Culture of Human Lymphoblasts from Peripheral Blood of a Child with Acute Leukemia. Cancer 1965, 18, 522-529] obtained through the NIH AIDS Research and Reference Reagent Program (Manassas, Va., USA) were passaged in T-75 flasks prior to use cell culture medium consisting of RPMI1640 medium (Lonza; Walkersville, Md., USA) supplemented with 10% heat inactivated fetal bovine serum (Gibco; Grand Island, N.Y.), […] L-glutamine (Lonza), […] penicillin (Lonza) and […] streptomycin (Lonza) for antiviral analysis. The CEM-SS cells were kept in RPMI 140 medium supplemented with 10% heat inactivated bovine fetal serum, 2 mM glutamine, 100 U/ml penicillin, and 100 μg/ml streptomycin.
A lymphocytropic HIV-1 IIIB strain [Popovic, M. et al. Detection, isolation, and continuous production of cytopathic retroviruses (HTLV-III) from patients with AIDS and pre-AIDS. Science. 1984, 224 (4648), 497-500] was chosen for a virus to be analyzed. The virus was obtained through the NIH AIDS Research and Reference Reagents Program and grown in CEM-SS cells to produce a stock virus pool. A pre-titrated aliquot of the virus was removed from the freezer (−80° C.) and allowed to slowly thaw to room temperature in a biological safety cabinet. The virus was diluted in a tissue culture medium so that the amount of virus added in 50 μl per well was sufficient to kill 85 to 95% of the cells 6 days after infection. HIV-1 IIIB was grown and titrated in CEM-SS cells. The inhibitory effect of […] was evaluated in CEM-SS cells as described earlier [Nara, P. L. at al. Simple, rapid, quantitative, syncytium-forming microassay for the detection of human immunodeficiency virus neutralizing antibody. AIDS Res. Hum. Retroviruses 1987, 3, 283-302.] in microtiter plate anti-HIV assays to quantitatively assess the ability of a compound to inhibit HIV-induced cell death. Quantification was carried out using 2,3-bis-(2-methoxy-4-nitro-5-[…])-(2H)-tetrazolium-5-carboxanilide (XTT) tetrazolium, which is metabolized to a stained formazan product through viable […] The compounds given in Table 1 were dissolved at 10 μM in DMSO and stored at −20° C.
Test materials were evaluated using antiviral assays in triplicate in concentrations of 30 and 10 nM. The compounds shown in table 1 were dissolved at 10 μM in DMSO and stored at −20° C. […] Sixty nanomolar concentrations of each compound (2 times that of the test concentration in the well) were prepared by diluting 10 μM DMSO stock 1:100 in cell culture medium (10 μl of compound added to 990 μl of the medium) followed by 1:10 dilution (10 μl of the compound was added to 90 μl of the medium), then 6 μl was added to 994 μl of the medium; […] μl was added to a 96-well microtiter plate in triplicate to ensure efficacy and one colorimetric well. Twenty nanomolar concentrations of each compound (twice as much as the test concentration in the well) were prepared by diluting 10 μM DMSO with the original 1:100 in cell culture medium (10 μl of the compound added to 990 μl of the medium) followed by diluting […] (10 μl of the compound was added to 900 μl of the medium), then 20 μl was added to 980 μl of the medium; 100 μl was added to a 96-well microtiter plate in triplicate to ensure efficacy and one colorimetric well.
Azidothymidine (AZT) was purchased from Sigma Aldrich (USA) and evaluated as a positive control compound in an antiviral assay using a six-concentration reaction curve on each assay plate.
Test compounds were initially evaluated for HIV-1 IIIB strain in CEM-SS cells at test concentrations of 30 and 10 nM. […]

Row | SMILES | pEC50
1 | C[C@H]1CO[C@@H]2Cn3cc(C(=O)NCc4c(F)ccnc4F)c(=O)c(O)c3C(=O)N12 [Compound 1.1.21, (3S,11aR)-6-hydroxy-N-[(2,4-difluoropyridin-3-yl)methyl]-3-methyl-5,7-dioxo-2,3,5,7,11,11a-hexahydro[1,3]oxazolo[3,2-a]pyrido[1,2-d]pyrazine-8-carboxamide] | < 7.52
2 | C[C@@H]1CCO[C@H]2Cn3cc(C(=O)NCc4c(F)cc(F)nc4F)c(=O)c(O)c3C(=O)N12 [Compound 1.2.3, (4R,12aS)-7-hydroxy-4-methyl-N-[(2,4.6-trifluoropyridin-3-yl)methyl]-6,8-dioxo-3,4,6,8,12,12a-hexahydro-2H-pyrido[1′,2′:4,5]pyrazino[2,1-b][1,3]oxazine-9-carboxamide] | 8.00 to 8.70
3 | C[C@H]1CO[C@@H]2Cn3cc(C(=O)NCc4cc5ccccc5o4)c(=O)c(O)c3C(=O)N12 [Compound 1.1.32, (3S,11aR)-N-(1-benzofuran-2-ylmethyl)-6-hydroxy-3-methyl-5,7-dioxo-2,3,5,7,11,11a-hexahydro[1,3]oxazolo[3,2-a]pyrido[1,2-d]pyrazine-8-carboxamide] | 8.00 to 8.70
4 | CC(C)n1c(CNC(=O)c2cn3c(c(O)c2=O)C(=O)N2[C@@H](C)CO[C@@H]2C3)nc2ccc(Cl)cc21 [Compound 1.1.45, (3S,11aR)-6-hydroxy-3-methyl-N-[(6-chloro-1-isopropyl-1H-benzimidazol-2-yl)methyl]-5,7-dioxo-2,3,5,7,11,11a-hexahydro[1,3]oxazolo[3,2-a]pyrido[1,2-d]pyrazine-8-carboxamide] | < 7.52
5 | O=C(NCc1ccc(F)nc1F)c1cn2c(c(O)c1=O)C(=O)N1[C@H]3CC[C@H](C3)O[C@@H]1C2 [Compound 1.3.1, (2R,5S,13aR)-8-hydroxy-N-[(2,6-difluoropyridin-3-yl)methyl]-7,9-dioxo-2,3,4,5,7,9,13,13a-octahydro-2,5-methanopyrido[1′,2′:4,5]pyrazino[2,1-b][1,3]oxazepine-10-carboxamide] | 8.00 to 8.70
6 | C[C@H]1CO[C@@H]2Cn3cc(C(=O)NCc4cn5cccnc5n4)c(=O)c(O)c3C(=O)N12 [Compound 1.1.58, (3S,11aR)-6-hydroxy-N-(imidazo[1,2-a]pyrimidin-2-ylmethyl)-3-methyl-5,7-dioxo-2,3,5,7,11,11a-hexahydro[1,3]oxazolo[3,2-a]pyrido[1,2-d]pyrazine-8-carboxamide] | < 7.52
7 | C[C@H]1CO[C@@H]2Cn3cc(C(=O)NCc4nncn4C)c(=O)c(O)c3C(=O)N12 [Compound 1.1.14, (3S,11aR)-6-hydroxy-3-methyl-N-[(4-methyl-4H-1,2,4-triazol-3-yl)methyl]-5,7-dioxo-2,3,5,7,11,11a-hexahydro[1,3]oxazolo[3,2-a]pyrido[1,2-d]pyrazine-8-carboxamide] | ~8.00
8 | C[C@@H]1CO[C@@]23CCC[C@@H]2n2cc(C(=O)NCc4ccc(F)nc4F)c(=O)c(O)c2C(=O)N13 [Compound 2.1.1, (3aS,6R,13aS)-9-hydroxy-N-[(2,6-difluoropyridin-3-yl)methyl]-6-methyl-8,10-dioxo-1,2,3,5,6,8,10,13a-octahydrocyclopenta[b][1,3]oxazolo[3,2-a]pyrido[1,2-d]pyrazine-11-carboxamide] | 8.00 to 8.70
9 | C[C@H]1CO[C@@H]2Cn3cc(C(=O)NCc4ccc(Cl)nc4)c(=O)c(O)c3C(=O)N12 [Compound 1.1.18, (3S,11aR)-6-hydroxy-N-[(6-chloropyridin-3-yl)methyl]-3-methyl-5,7-dioxo-2,3,5,7,11,11a-hexahydro[1,3]oxazolo[3,2-a]pyrido[1,2-d]pyrazine-8-carboxamide] | 7.52 to 8.00
10 | C[C@H]1CO[C@@]23CCC[C@@H]2n2cc(C(=O)NCc4ccc(F)nc4F)c(=O)c(O)c2C(=O)N13 [Compound 2.2.1, (3aS,6S,13aS)-9-hydroxy-N-[(2,6-difluoropyridin-3-yl)methyl]-6-methyl-8,10-dioxo-1,2,3,5,6,8,10,13a-octahydrocyclopenta[b][1,3]oxazolo[3,2-a]pyrido[1,2-d]pyrazine-11-carboxamide] | ~8.00
11 | Cc1nnsc1CNC(=O)c1cn2c(c(O)c1=O)C(=O)N1[C@@H](C)CO[C@@H]1C2 [Compound 1.1.11, (3S,11aR)-6-hydroxy-3-methyl-N-[(4-methyl-1,2,3-thiadiazol-5-yl)methyl]-5,7-dioxo-2,3,5,7,11,11a-hexahydro[1,3]oxazolo[3,2-a]pyrido[1,2-d]pyrazine-8-carboxamide] | < 7.52
12 | C[C@H]1CO[C@@]23CCC[C@@H]2n2cc(C(=O)NCc4c(F)cc(F)nc4F)c(=O)c(O)c2C(=O)N13 [Compound 2.2.3, (3aS,6S,13aS)-9-hydroxy-6-methyl-N-[(2,4,6-trifluoropyridin-3-yl)methyl]-8,10-dioxo-1,2,3,5,6,8,10,13a-octahydrocyclopenta[b][1,3]oxazolo[3,2-a]pyrido[1,2-d]pyrazine-11-carboxamide] | 8.00 to 8.70
13 | Cc1nn(C)c(C)c1CNC(=O)c1cn2c(c(O)c1=O)C(=O)N1[C@@H](C)CO[C@@H]1C2 [Compound 1.1.5, (3S,11aR)-6-hydroxy-3-methyl-N-[(1,3,5-trimethyl-1H-pyrazol-4-yl)methyl]-5,7-dioxo-2,3,5,7,11,11a-hexahydro[1,3]oxazolo[3,2-a]pyrido[1,2-d]pyrazine-8-carboxamide] | 7.52 to 8.00
14 | C[C@H]1CO[C@@H]2Cn3cc(C(=O)NCc4nnc5n4CCCC5)c(=O)c(O)c3C(=O)N12 [Compound 1.1.61, (3S,11aR)-6-hydroxy-3-methyl-N-(5,6,7,8-tetrahydro[1,2,4]triazolo[4,3-a]pyridin-3-ylmethyl)-5,7-dioxo-2,3,5,7,11,11a-hexahydro[1,3]oxazolo[3,2-a]pyrido[1,2-d]pyrazine-8-carboxamide] | < 7.52
15 | C[C@H]1CO[C@@H]2Cn3cc(C(=O)NCc4nccs4)c(=O)c(O)c3C(=O)N12 [Compound 1.1.8, (3S,11aR)-6-hydroxy-3-methyl-N-(1,3-thiazol-2-ylmethyl)-5,7-dioxo-2,3,5,7,11,11a-hexahydro[1,3]oxazolo[3,2-a]pyrido[1,2-d]pyrazine-8-carboxamide] | 8.00 to 8.70
16 | C[C@H]1CO[C@@H]2Cn3cc(C(=O)NCc4ccc5ccccc5n4)c(=O)c(O)c3C(=O)N12 [Compound 1.1.49, (3S,11aR)-6-hydroxy-3-methyl-N-(quinolin-2-ylmethyl)-5,7-dioxo-2,3,5,7,11,11a-hexahydro[1,3]oxazolo[3,2-a]pyrido[1,2-d]pyrazine-8-carboxamide] | 8.00 to 8.70
17 | C[C@H]1CO[C@@H]2Cn3cc(C(=O)NCc4nc5cc(Cl)ccc5o4)c(=O)c(O)c3C(=O)N12 [Compound 1.1.38, (3S,11aR)-6-hydroxy-3-methyl-N-[(5-chloro-1,3-benzoxazol-2-yl)methyl]-5,7-dioxo-2,3,5,7,11,11a-hexahydro[1,3]oxazolo[3,2-a]pyrido[1,2-d]pyrazine-8-carboxamide] | < 7.52
18 | C[C@H]1CO[C@@H]2Cn3cc(C(=O)NCc4ccnc5ccccc45)c(=O)c(O)c3C(=O)N12 [Compound 1.1.65, (3S,11aR)-6-hydroxy-3-methyl-N-(quinolin-4-ylmethyl)-5,7-dioxo-2,3,5,7,11,11a-hexahydro[1,3]oxazolo[3,2-a]pyrido[1,2-d]pyrazine-8-carboxamide] | > 8.70
19 | Cc1coc(CNC(=O)c2cn3c(c(O)c2=O)C(=O)N2[C@@H](C)CO[C@@H]2C3)n1 [Compound 1.1.9, (3S,11aR)-6-hydroxy-3-methyl-N-[(4-methyl-1,3-oxazol-2-yl)methyl]-5,7-dioxo-2,3,5,7,11,11a-hexahydro[1,3]oxazolo[3,2-a]pyrido[1,2-d]pyrazine-8-carboxamide] | < 7.52
